Our source for the IC50, Ki and solubility values is patent US9340500B2, “Aromatic heterocyclic derivative having TRPV4-inhibiting activity” (SHIONOGI & CO., LTD., priority 2011, dated 2016).

SMILES strings stand for the structures. In brackets after ≈: the same amount, converted by molar mass.

In data set [1] the target is T1, human TRPV4 (Homo sapiens (Human), UniProt Q9HBA0). The data set can be described thus: Test Example 1: measurement of TRPV4 inhibitory activity (Fluo 4-AM, FLIPR TETRA, 4α-PDD 1 μmol/L). In kind it is cell-based. The conditions noted are these: hTRPV4/CHO cells, 4α-PDD 1 μmol/L. How it is done:
(§1) For each compound, TRPV4 inhibitory activity was measured using cells.
(§2) (1) The TRPV4 inhibitory activity was measured using CHO-K1 cells stably expressing human TRPV4 (hTRPV4/CHO cells).
(2) In the day before the experimental day, frozen cell were thawed and washed with the culture medium (MEM-α, 10% FBS, 2 mmol/L GlutaMax, 50 unit Penicillin, 50 μg/mL Streptomycin). Then cells were suspended in the culture medium.
(3) The 384-well plates which hTRPV4/CHO cells were seeded at densities of 4000 cells/well in the culture medium and cultured in a CO2 incubator in the presence of 5% CO2 at 37° C. for overnight was used as assay plates.
(4) The assay plate was washed with assay buffer (Hanks, 20 mmol/L HEPES, 2.5 mmol/L probenecid, pH7.4), and the buffer were remained at 20 μL/well.
(5) 10 μl of dye loading buffer (9 μmol/L Fluo 4-AM, 0.09% Pluronic F-127/assay buffer) was added to each well, then the assay plate was incubated in a CO2 incubator in the presence of 5% CO2 at 37° C. for one hour. (final 3 μmol/L Fluo4-AM).
(6) The assay plate was washed with the assay buffer, and the buffers were remained at 20 μL/well. Then the assay plate was incubated for 10 min at room temperature.
(7) Diluted compound solution was dispensed to each well in the compound plate, and mixed with built-in Pipette and Mixer of the Fluorescence analysis system FLIPR TETRA (Molecular devices).
(8) After incubation for 5 min, 20 μL of 4α-PDD solution were applied to each well of assay plate and mixed with the FLIPR TETRA. (final 1 μmol/L 4α-PDD)
(9) The fluorescent intensity was measured with FLIPR TETRA system for 10 min from the point of time addition the compound solution, at Ex 470-495 nm, Em 515-575 nm wavelength.
TRPV4 inhibitory activity (IC50 value and Ki value) of a compound was evaluated according to the following procedure.
(10) In the presence of the compound, the difference between maximal and minimal of fluorescent intensity value for 5 min from just before addition of 4α-PDD solution was calculated, and it was referred as Max-Min value. Max-Min value of the Ruthenium Red at 20 μM was defined as 100% inhibitory activity, Max-Min value in the absence of the compound was defined as 0% inhibitory activity. The TRPV4 inhibitory activity of the compound was calculated by the following formula. (1−(Max-Min value of the compound−100% inhibitory activity)/(0% inhibitory activity−100% inhibitory activity))×100 (11) Inhibitory activity was calculated at 10 points with three fold serial dilution, in the final concentration of the compound from 10 μmmol/L to 0.5 nmol/L, the IC50 value was calculated by logistic approximation method. (12) In the absence of the compound, the fluorescent intensity was measured as the same method with 10, 1, 0.5, 0.2, and 0 μmol/L as final concentration of 4α-PDD. The difference of minimal and maximal fluorescent intensity value for 5 min from just before addition of 4α-PDD solution was calculated, and it was referred as Max-Min value. Max-Min value of the 4α-PDD at 10 μmol/L was defined as 100% activity, Max-Min value in the absence of 4α-PDD was defined as 0% activity. The TRPV4 activity of each concentration of 4α-PDD was calculated by the following formula. (Max-Min value of the each 4α-PDD concentration−0% activity)/(100% activity−0% activity))×100 (13) Effective activity was calculated in 5 concentrations of 4α-PDD the above. The EC50 value was calculated by logistic approximation method. The Ki value of a compound was calculated by the following formula. Ki (nmol/L)=IC50 value (nmol/L)/(1+[…] (test 4α-PDD concentration (nmol/L)/EC50 value (nmol/L))

Data set [2] concerns the target T1, human TRPV4. As to the kind of experiment: Test Example 3: measurement of TRPV4 inhibitory activity (Fluo-3, FDSS 3000, 4α-PDD). Format: cell-based. The note with it: hTRPV4/CHO cells, calculated from IC50 and 4α-PDD EC50. How it is done: as §1, §2
(2) Frozen cells were thawed and subcultured with the medium (MEM-α, 10% FBS, […], 50 unit/mL penicillin, 50 μg/mL streptomycin, 1 mg/mL G418).
(3) The 96-well plates which hTRPV4/CHO cells were seeded at densities of 2×10^4 cells/well in the culture medium and cultured in a CO2 incubator in the presence of 5% CO2 at 37° C. for 24 h was used as assay plates.
(4) The assay plate was washed with assay buffer (Hanks, […], […], pH7.4).
(5) Fluo-3, fluorescent dye for Ca influx assay was added to each well, then the assay plate was incubated in a CO2 incubator in the presence of 5% CO2 at 37° C. for one hour (final conc.; 5 μmmol/L Fluo-3).
(6) The assay plate was washed with the assay buffer, and the buffer was remained at 30 μL/well. Then the assay plate was incubated for 10 min at 37° C.
(7) Diluted compound solution was dispensed to each well in the compound plate, and mixed with built-in Pipette and Mixer of the fluorescence analysis system FDSS 3000 (Hamamatsu Photonics).
(8) 50 μL of 4α-PDD solution (concluding 0.1% Pluronic F-127) was applied to each well of assay plate and mixed.
(9) The fluorescent intensity was measured by FDSS 3000 for 8 min from the point of time addition the compound solution, at Ex 480 nm, Em 540 nm wavelength.
TRPV4 inhibitory activity (Ki value) of a compound was evaluated according to the following procedure.
(10) In the presence of the compound, the difference between maximal and minimal of fluorescent intensity value for 8 min from just before addition of 4α-PDD solution was calculated, and it was referred as Max-Min value. Max-Min value of the Ruthenium Red at 10 μM was defined as 100% inhibitory activity, Max-Min value in the absence of the compound was defined as 0% inhibitory activity. The TRPV4 inhibitory activity of the compound was calculated by the following formula. (1−(Max-Min value of the compound−100% inhibitory activity)/(0% inhibitory activity−100% inhibitory activity))×100 (11) By the following formula, inhibitory activity was calculated at 10 points with three fold serial dilution, in the final concentration of the compound from 10 μmmol/L to 0.5 nmol/L. The IC50 value was calculated by dose-response curve. 100−[(fluorescent intensity in the presence of the compound−fluorescent intensity of back ground)/(total fluorescent intensity−fluorescent intensity of back ground)]×100 (12) In the presence of the compound, activity of 4α-PDD was measured at 9 points with three fold serial dilution from 20 μmol/L. Activity of 4α-PDD was calculated by the following formula. (Max-Min value of the each 4α-PDD concentration−0% activity)/(100% activity−0% activity))×100 (13) Effective activity was calculated in 4α-PDD the above. The EC50 value was calculated by dose-response curve. (14) The Ki value of a compound was calculated by the following formula. Ki (nmol/L)=IC50 value (nmol/L)/([A]/EC50 value (nmol/L)) [A]; Concentration of agonist (nmol/L)

Data set [3] in a line: Solubility test. Format: physicochemical. The conditions noted are these: artificial intestinal juice (phosphate buffer), fassgf or other biorelevant, kinetic from dmso stock; 1% DMSO, artificial intestinal juice pH 6.8, 16 hours at 25° C. How it is done:
The solubility of each compound is determined under 1% DMSO addition conditions. A 10 mmol/L solution of the compound is prepared with DMSO, and 6 μL of the compound solution is added to 594 μL of an artificial intestinal juice (water and 118 mL of 0.2 mol/L NaOH reagent are added to 250 mL of 0.2 mol/L potassium dihydrogen phosphate reagent to reach 1000 mL) with a pH of 6.8. The mixture is left standing for 16 hours at 25° C., and the mixture is vacuum-filtered. The filtrate is two-fold diluted with methanol/water=1/1, and the compound concentration in the filtrate is measured with HPLC or LC/MS/MS by the absolute calibration method.

T1 sequence (Q9HBA0 whole entry): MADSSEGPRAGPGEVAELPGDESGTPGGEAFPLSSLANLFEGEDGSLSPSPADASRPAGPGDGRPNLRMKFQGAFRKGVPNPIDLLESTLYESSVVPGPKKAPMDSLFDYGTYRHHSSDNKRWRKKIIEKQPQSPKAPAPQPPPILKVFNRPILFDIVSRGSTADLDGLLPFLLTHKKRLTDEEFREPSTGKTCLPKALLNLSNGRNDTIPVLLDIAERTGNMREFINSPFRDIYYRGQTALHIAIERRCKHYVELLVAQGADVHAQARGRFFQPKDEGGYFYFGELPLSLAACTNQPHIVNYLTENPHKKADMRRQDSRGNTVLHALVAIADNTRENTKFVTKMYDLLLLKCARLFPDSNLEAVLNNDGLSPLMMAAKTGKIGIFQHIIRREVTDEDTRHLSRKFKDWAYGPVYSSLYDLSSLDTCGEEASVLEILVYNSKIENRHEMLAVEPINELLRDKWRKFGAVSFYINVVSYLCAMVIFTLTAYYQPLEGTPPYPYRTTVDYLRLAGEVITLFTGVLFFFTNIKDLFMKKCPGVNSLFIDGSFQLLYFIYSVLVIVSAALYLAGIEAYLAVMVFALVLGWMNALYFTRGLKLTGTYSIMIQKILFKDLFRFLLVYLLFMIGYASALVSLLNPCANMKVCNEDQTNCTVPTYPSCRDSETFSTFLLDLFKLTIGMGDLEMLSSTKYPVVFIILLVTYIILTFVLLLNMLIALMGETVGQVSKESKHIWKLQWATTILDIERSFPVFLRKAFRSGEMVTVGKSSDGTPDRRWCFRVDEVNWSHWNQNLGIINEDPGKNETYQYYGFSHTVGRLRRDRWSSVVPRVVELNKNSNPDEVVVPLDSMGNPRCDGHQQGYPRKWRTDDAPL

A word on the IC50: it is the concentration at which inhibition is half-maximal. By Ki is commonly meant the equilibrium dissociation constant of an inhibitor or competing ligand from its target. In data set [1], `Cc1c(C(=O)Nc2cccc(C(F)(F)F)c2)cc(-c2ccccc2)n1CCCN(C)C(=O)c1ccno1` [Compound I-063] had an IC50 of 510 nM. The inhibition constant (Ki) in data set [2] is 251 nM.
Take `Cc1c(C(=O)Nc2cccc(C(F)(F)F)c2)cc(-c2ccccc2)n1CCCN(C)CC(C)C` [Compound I-032]: the IC50 in data set [1] worked out at 640 nM. Also, the Ki in data set [2] was 1610 nM.
`O=C(Nc1cccc(C(F)(F)F)c1)c1cc(-c2ccccc2)n(CCCN2CCOCC2)c1C(F)(F)F` [Compound I-028] had an IC50 in data set [1] of 3800 nM. Further, the inhibitory constant (Ki) in data set [2] was 1710 nM.
In the same order, the values of `COCCCn1c(-c2ccccc2)cc(C(=O)Nc2cccc(C(F)(F)F)c2)c1C` [Compound I-010] are 800 nM and 714 nM.
In the same order, the values of `CC(=O)N1CCN(CCCn2c(-c3ccccc3)cc(C(=O)Nc3cccc(C(F)(F)F)c3)c2C)CC1` [Compound I-015] are 2600 nM and 1440 nM.
Turning to `Cc1c(C(=O)Nc2cccc(C(F)(F)F)c2)cc(-c2ccccc2)n1CCCN(C)C(=O)C1CCCCC1` [Compound I-042], the Ki in data set [2] was 1120 nM.
On the same count and under the same terms, to `Cc1c(C(=O)Nc2cccc(Cl)c2)cc(-c2ccccc2)n1CCCN1CCOCC1` [Compound I-013] belongs 453 nM.
In general, solubility refers to the concentration that dissolves in the medium under given conditions. A low value points to a poorly soluble substance. Turning to `Cc1c(C(=O)Nc2cccc(C(F)(F)F)c2)nc(-c2ccccc2)n1CCCN1CCOCC1` [Compound I-087], in data set [3], the solubility at 16 h stood at 5.2 µM (≈ 2.46 µg/mL).
In data set [1], `Cc1c(C(=O)Nc2ccc(C(F)(F)F)cc2)cc(-c2ccccc2)n1CCCN1CCOCC1` [Compound I-024] registered an IC50 of 340 nM. The inhibition constant Ki in data set [2] was 755 nM.
With `Cc1c(C(=O)Nc2cccc(C(F)(F)F)c2)cc(-c2ccccc2)n1CCCN(C)C(=O)OC(C)(C)C` [Compound I-030], the inhibition constant (Ki) in data set [2] was 701 nM.
`Cc1c(NC(=O)Nc2cccc(C(F)(F)F)c2)cc(-c2ccccc2)n1CCCN1CCOCC1` [Compound I-081] displayed an IC50 in data set [1] of 3900 nM. For the same compound, in data set [2], the Ki was 1610 nM.
As to `COC(=O)CCCN(C)CCCn1c(-c2ccccc2)cc(C(=O)Nc2cccc(C(F)(F)F)c2)c1C` [Compound I-041], in data set [2], the Ki is 988 nM.
`Cc1c(C(=O)Nc2cccc(C(F)(F)F)c2)cc(-c2ccccc2)n1CCCN(C)CC1CCOC1` (stereo not drawn) [Compound I-036]: the inhibition constant (Ki) in data set [2] was 1000 nM.
Still for that read-out and setting: the result for `CC(=O)Nc1ccc(C(=O)N(C)CCCn2c(-c3ccccc3)cc(C(=O)Nc3cccc(C(F)(F)F)c3)c2C)cc1` [Compound I-056] reads 560 nM.
In data set [1], `Cc1c(C(=O)Nc2cccc(C(F)(F)F)c2)cc(-c2ccccc2)n1CCCN(C)C(=O)C1CCCC1` [Compound I-049] displayed an IC50 of 240 nM. Besides, the Ki in data set [2] is 418 nM.
The like results for `CC(=O)N(C)CCCn1c(-c2ccccc2)cc(C(=O)Nc2cccc(C(F)(F)F)c2)c1C` [Compound I-070] were, in that order, 590 nM and 1680 nM.
With `Cc1c(C(=O)Nc2cccc(C(F)(F)F)c2)cc(-c2ccccc2)n1CCCN(C)C(=O)C1CCC1` [Compound I-059], in data set [2], the Ki is 472 nM.
`Cc1c(C(=O)Nc2cccc(C(F)(F)F)c2)cc(-c2ccccc2)n1CCCO` [Compound I-006]: it took 2300 nM to reach half-maximal inhibition in data set [1] (IC50). In addition, in data set [2], the Ki is 1060 nM.
In turn, `Cc1c(C(=O)Nc2cccc(C(F)(F)F)c2)cc(-c2ccccc2)n1CCN1CCOCC1` [Compound I-083] registered an IC50 in data set [1] of 400 nM. Also, in data set [2], the Ki was 443 nM.
As to `Cc1c(C(=O)Nc2cccc(C(C)C)c2)cc(-c2ccccc2)n1CCCN1CCOCC1` [Compound I-029], in data set [2], the Ki is 519 nM.
Take `CC(=O)N1CCC(C(=O)N(C)CCCn2c(-c3ccccc3)cc(C(=O)Nc3cccc(C(F)(F)F)c3)c2C)CC1` [Compound I-057]: the Ki in data set [2] was 1790 nM.
With `Cc1c(C(=O)Nc2cccc(C(F)(F)F)c2)cc(-c2ccccc2)n1CCCN(C)C(=O)c1ccccn1` [Compound I-054], the Ki in data set [2] is 1160 nM.
The compound `CC(=O)NCCCn1c(-c2ccccc2)cc(C(=O)Nc2cccc(C(F)(F)F)c2)c1C` [Compound I-025] showed an IC50 in data set [1] of 3200 nM. In addition, the Ki in data set [2] was 1130 nM.
For `Cc1c(C(=O)Nc2cccc(C(F)(F)F)c2)cc(-c2ccccc2)n1CCCN(C)C(=O)Cc1cccs1` [Compound I-046], the Ki in data set [2] is 1680 nM.
`COCCOCC(=O)N(C)CCCn1c(-c2ccccc2)cc(C(=O)Nc2cccc(C(F)(F)F)c2)c1C` [Compound I-050]: the Ki in data set [2] was 1140 nM.
On the same count and under the same terms, to `Cc1c(C(=O)Nc2cccc(C(F)(F)F)c2)cc(-c2ccccc2)n1CCCN(C)C(=O)c1cccc(N(C)C)c1` [Compound I-069] belongs 816 nM.
The compound `Cc1c(C(=O)Nc2cccc(C(F)(F)F)c2)cc(-c2ccccc2)n1CCCN1CCCCC1` [Compound I-008] gave an IC50 in data set [1] of 82 nM. In addition, the Ki in data set [2] was 327 nM.
In the same order, the values of `COC(=O)NCCCn1c(-c2ccccc2)cc(C(=O)Nc2cccc(C(F)(F)F)c2)c1C` [Compound I-027] are 1800 nM and 936 nM.
